Values joined by “and” are separate entries in the source; they are usually repeats but may differ in a detail not shown here. Equal entries are not always repeated.
Tested on: 361931-004-R-J1-PDC multicell spheroid viability
Assay: Anticancer human tumor 361931-004-R-J1-PDC patient-derived colon adenocarcinoma cell line growth inhibition [PI3K]
Settings: for viability, T/C: stronger effect = lower value; active means viability on the fitted dose curve at most 10% of control; inactive means the rest
Summary of the method: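 Combination activity was assessed by viability in multicellular tumor spheroids carrying HUVEC and MSC components. Agents were tested with PI3K inhibitors from a Cmax-based top dose (or 10 microM) downward in half-log increments.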

[1] = curve of first compound, second compound 0.00316 µM
[2] = curve of first compound, second compound 0.01 µM
[3] = curve of first compound, second compound 0.0316 µM
[4] = curve of first compound, second compound 0.1 µM
[5] = curve of first compound, second compound 0.316 µM
[6] = curve of first compound, second compound 1 µM
[7] = second compound 0.00316 µM, first compound 0.0316 µM
[8] = second compound 0.00316 µM, first compound 0.1 µM
[9] = second compound 0.00316 µM, first compound 0.316 µM
[10] = second compound 0.00316 µM, first compound 1 µM
[11] = second compound 0.00316 µM, first compound 3.16 µM
[12] = second compound 0.00316 µM, first compound 10 µM
[13] = second compound 0.01 µM, first compound 0.0316 µM
[14] = second compound 0.01 µM, first compound 0.1 µM
[15] = second compound 0.01 µM, first compound 0.316 µM
[16] = second compound 0.01 µM, first compound 1 µM
[17] = second compound 0.01 µM, first compound 3.16 µM
[18] = second compound 0.01 µM, first compound 10 µM
[19] = second compound 0.0316 µM, first compound 0.0316 µM
[20] = second compound 0.0316 µM, first compound 0.1 µM
[21] = second compound 0.0316 µM, first compound 0.316 µM
[22] = second compound 0.0316 µM, first compound 1 µM
[23] = second compound 0.0316 µM, first compound 3.16 µM
[24] = second compound 0.0316 µM, first compound 10 µM
[25] = second compound 0.1 µM, first compound 0.0316 µM
[26] = second compound 0.1 µM, first compound 0.1 µM
[27] = second compound 0.1 µM, first compound 0.316 µM
[28] = second compound 0.1 µM, first compound 1 µM
[29] = second compound 0.1 µM, first compound 3.16 µM
[30] = second compound 0.1 µM, first compound 10 µM
[31] = second compound 0.316 µM, first compound 0.0316 µM
[32] = second compound 0.316 µM, first compound 0.1 µM
[33] = second compound 0.316 µM, first compound 0.316 µM
[34] = second compound 0.316 µM, first compound 1 µM
[35] = second compound 0.316 µM, first compound 3.16 µM
[36] = second compound 0.316 µM, first compound 10 µM
[37] = second compound 1 µM, first compound 0.0316 µM
[38] = second compound 1 µM, first compound 0.1 µM
[39] = second compound 1 µM, first compound 0.316 µM
[40] = second compound 1 µM, first compound 1 µM
[41] = second compound 1 µM, first compound 3.16 µM
[42] = second compound 1 µM, first compound 10 µM
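Further: spheroids exposed to agents for seven days before readout.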

CC(Cn1ccc(-c2ccc(C#N)c(Cl)c2)n1)NC(=O)c1cc(C(C)O)[nH]n1 (stereo not drawn) + COc1c(OCCCN2CCOCC2)ccc2c3n(c(=NC(=O)c4cnc(N)nc4)nc12)CCN3
> 10 µM: IC50 [1] | IC50 [2] | IC50 [3] | IC50 [4]
inactive: viability, T/C [7] 103% | viability, T/C [8] 92.1% | viability, T/C [9] 97.7% | viability, T/C [10] 103% | viability, T/C [11] 103% | viability, T/C [12] 98% | viability, T/C [13] 102% | viability, T/C [14] 102% | viability, T/C [15] 99.1% | viability, T/C [16] 93.5% | viability, T/C [17] 98.1% | viability, T/C [18] 95% | viability, T/C [19] 95.1% | viability, T/C [20] 94.7% | viability, T/C [21] 83.5% | viability, T/C [22] 93.4% | viability, T/C [23] 89.4% | viability, T/C [24] 78% | viability, T/C [25] 81.5% | viability, T/C [26] 83.2% | viability, T/C [27] 76.8% | viability, T/C [28] 70.3% | viability, T/C [29] 78% | viability, T/C [30] 62.1% | viability, T/C [31] 51.4% | viability, T/C [32] 49.5% | viability, T/C [33] 47.6% | viability, T/C [34] 44% | viability, T/C [35] 42.4% | viability, T/C [36] 30.6% | viability, T/C [37] 20.5% | viability, T/C [38] 19% | viability, T/C [39] 15.8% | viability, T/C [40] 19.5% | viability, T/C [41] 16.7% | viability, T/C [42] 11.9%
< 0.0316 µM: IC50 [6]
0.0487 µM: IC50 [5]

C=CC(=O)N1CCN(c2nc(=O)n(-c3c(C)ccnc3C(C)C)c3nc(-c4c(O)cccc4F)c(F)cc23)C(C)C1 (stereo not drawn) + CC(Nc1ccc2c(c1)OCCn1cc(N3C(=O)OCC3C(F)F)nc1-2)C(N)=O
inactive: viability, T/C [7] 99.7% | viability, T/C [8] 103% | viability, T/C [9] 101% | viability, T/C [10] 92.7% | viability, T/C [11] 99.8% | viability, T/C [12] 81.2% | viability, T/C [13] 107% | viability, T/C [14] 100% | viability, T/C [15] 99.5% | viability, T/C [16] 99.5% | viability, T/C [17] 106% | viability, T/C [18] 89.8% | viability, T/C [19] 104% | viability, T/C [20] 103% | viability, T/C [21] 99.2% | viability, T/C [22] 97.5% | viability, T/C [23] 97% | viability, T/C [24] 76.2% | viability, T/C [25] 97.4% | viability, T/C [26] 91.6% | viability, T/C [27] 96.9% | viability, T/C [28] 101% | viability, T/C [29] 93.5% | viability, T/C [30] 72.2% | viability, T/C [31] 88.7% | viability, T/C [32] 84.7% | viability, T/C [33] 81.6% | viability, T/C [34] 89.4% | viability, T/C [35] 86% | viability, T/C [36] 66% | viability, T/C [37] 75.5% | viability, T/C [38] 78.2% | viability, T/C [39] 80% | viability, T/C [40] 80.1% | viability, T/C [41] 86.7% | viability, T/C [42] 59.4%
> 10 µM: IC50 [1] | IC50 [2] | IC50 [3] | IC50 [4] | IC50 [5] | IC50 [6]

Cn1nccc1Nc1nccc(-c2ccn(C(CO)c3ccc(Cl)c(F)c3)c(=O)c2)n1 (stereo not drawn)
> 10 µM and 9.47 µM: IC50 (curve of compound)
inactive: viability, T/C (compound 0.0316 µM) 106% [middle of 4 runs] | viability, T/C (compound 0.1 µM) 92.5% [middle of 4 runs] | viability, T/C (compound 0.316 µM) 97% [middle of 4 runs] | viability, T/C (compound 1 µM) 95.2% [middle of 4 runs] | viability, T/C (compound 3.16 µM) 78.3% [middle of 4 runs] | viability, T/C (compound 10 µM) 61.8% [middle of 4 runs]

CC1(C)CCC(CN2CCN(c3ccc(C(=O)NS(=O)(=O)c4ccc(NCC5CCOCC5)c([N+](=O)[O-])c4)c(Oc4cnc5[nH]ccc5c4)c3)CC2)=C(c2ccc(Cl)cc2)C1 + COc1c(OCCCN2CCOCC2)ccc2c3n(c(=NC(=O)c4cnc(N)nc4)nc12)CCN3
5.64 µM: IC50 [1]
5.57 µM: IC50 [2]
< 0.0316 µM: IC50 [6]
active: viability, T/C [12] 4.89% | viability, T/C [18] 3.83% | viability, T/C [24] 3.08% | viability, T/C [30] 1.89% | viability, T/C [36] 2.15%
4.87 µM: IC50 [3]
inactive: viability, T/C [7] 92.3% | viability, T/C [8] 98.1% | viability, T/C [9] 108% | viability, T/C [10] 104% | viability, T/C [11] 95.4% | viability, T/C [13] 106% | viability, T/C [14] 98.7% | viability, T/C [15] 104% | viability, T/C [16] 101% | viability, T/C [17] 94.6% | viability, T/C [19] 96% | viability, T/C [20] 94.9% | viability, T/C [21] 96.2% | viability, T/C [22] 90.4% | viability, T/C [23] 78.6% | viability, T/C [25] 82.5% | viability, T/C [26] 76.6% | viability, T/C [27] 76.8% | viability, T/C [28] 81% | viability, T/C [29] 54.5% | viability, T/C [31] 53% | viability, T/C [32] 51.6% | viability, T/C [33] 51.4% | viability, T/C [34] 48.6% | viability, T/C [35] 36.4% | viability, T/C [37] 25.9% | viability, T/C [38] 25.6% | viability, T/C [39] 21.4% | viability, T/C [40] 25.6% | viability, T/C [41] 19.8% | viability, T/C [42] 2.71%
3.49 µM: IC50 [4]
0.555 µM: IC50 [5]
